Structures can show the parent of a compound that is named as a salt. Where two headings read alike, the source gives them in different places.
Columns and labels:
[1] = molecular target: T1, M1 muscarinic receptor (Rattus norvegicus, UniProt P08482); assay: M1 receptor binding ([^3 H]-pirenzepine); set-up: species or system rat (male Sprague-Dawley)
T1 sequence (P08482 1-460): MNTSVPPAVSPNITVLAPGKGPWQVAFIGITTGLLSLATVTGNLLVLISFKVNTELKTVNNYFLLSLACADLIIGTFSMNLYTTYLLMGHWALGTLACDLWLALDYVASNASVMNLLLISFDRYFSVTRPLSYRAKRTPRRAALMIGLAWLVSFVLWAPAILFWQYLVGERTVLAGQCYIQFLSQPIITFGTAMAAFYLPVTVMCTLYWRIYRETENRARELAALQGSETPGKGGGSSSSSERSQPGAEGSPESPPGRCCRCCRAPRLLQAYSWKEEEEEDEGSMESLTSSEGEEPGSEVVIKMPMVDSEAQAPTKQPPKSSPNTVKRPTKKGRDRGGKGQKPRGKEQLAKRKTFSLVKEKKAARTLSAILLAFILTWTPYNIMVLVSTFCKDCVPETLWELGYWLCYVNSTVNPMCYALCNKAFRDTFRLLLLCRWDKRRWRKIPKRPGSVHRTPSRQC
Method: Compounds are tested for their ability to affect M1 muscarinic binding through use of [^3 H]-pirenzepine ([^3 H]PZ) as a prototypic M1 receptor ligand. Male Sprague-Dawley (Charles River) rats are used. Dose selection is typically in the concentration range of 10^-9 to 10^-4 M. Test and reference compounds are dissolved and diluted in water or ethanol and are then added to the assay buffer. The appropriate vehicle is added to the assay buffer for control testing.
The rats (approximately 300 gm body weight) have free access to food and water and are housed in groups of four to six. On the test day, the rats are euthanized by decapitation and brain tissue is dissected and homogenized using a hand-held teflon-coated pestle, in 20 volumes of 0.32M sucrose (20 strokes at 4° C.). After centrifugation (747×g for 10 minutes at 4° C.), the resultant supernatant is decanted and recentrifuged (18677×g for 20 minutes at 4° C.). The resultant pellet is resuspended in the original volume of 0.32M sucrose and frozen. After thawing, the suspension is diluted (1:1 v/v) with 10 mM Na2 HPO4 /KH2 PO4 buffer (pH=7.4). [^3 H]PZ (0.5 nM, 0.04 μCi) is then incubated with a 100 μl sample of the tissue suspension in the above buffer (1 ml final volume, including a 10 μl sample of test compound or vehicle). […] After 60 minutes of incubation at 25° C. (in the dark), the binding is terminated by vacuum filtration onto Whatman GF/B filters (pre-soaked for 60 minutes in 0.1% (w/v) polyethylenimine to reduce non-specific binding). After three washes with the previously mentioned buffer (4° C., 3 ml/wash), the vacuum is allowed to run for two minutes before the filter-trapped radioactivity is assayed by liquid scintillation spectroscopy.
Data are presented as the percent inhibition ([control-test]/control×100%) or enhancement ([test-control]/control×100%) of [^3 H]PZ binding by the test or reference compound. The IC50 value (the drug concentration which causes a 50% inhibition of specific [^3 H]PZ binding) is calculated through the use of the EDOSE program (with probit transformation written by a person for use in STAT80). Increases in [^3 H]PZ are reported as percent increase (versus control) for a given test drug concentration.

[2] = molecular target: T2, M2 receptors (Rattus norvegicus, UniProt P10980); assay: biochemical; assay type: binding
T2 sequence (P10980 1-466): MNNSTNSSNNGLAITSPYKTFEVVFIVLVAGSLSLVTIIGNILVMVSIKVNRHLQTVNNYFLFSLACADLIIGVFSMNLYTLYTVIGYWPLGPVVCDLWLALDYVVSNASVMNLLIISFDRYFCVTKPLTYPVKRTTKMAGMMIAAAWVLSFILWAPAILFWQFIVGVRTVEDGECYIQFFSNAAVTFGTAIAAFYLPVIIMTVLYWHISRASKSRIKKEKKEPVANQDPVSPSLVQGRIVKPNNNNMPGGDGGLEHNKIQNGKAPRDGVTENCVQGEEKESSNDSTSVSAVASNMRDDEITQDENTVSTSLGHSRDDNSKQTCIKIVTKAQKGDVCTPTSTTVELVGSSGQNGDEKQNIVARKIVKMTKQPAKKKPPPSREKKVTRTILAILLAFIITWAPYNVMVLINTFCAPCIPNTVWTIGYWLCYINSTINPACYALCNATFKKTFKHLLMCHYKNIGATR

[3] = system: M2 receptors; assay: biochemical; assay type: binding; details: Table 1; ratio of M2 IC50 to M1 IC50
[4] = system: scopolamine-induced hyperactivity, a proposed muscarinic M1 -mediated effect; assay: Scopolamine-induced hyperactivity (locomotor activity); assay type: in vivo, rat; details: for Total activity: N=10
Method: Compounds were evaluated for the ability to attenuate scopolamine-induced hyperactivity, a proposed muscarinic M1 -mediated effect. Animals were permitted to habituate for 30 minutes in locomotor activity chambers (Digiscan, Omnitech; Columbus, Ohio) in which infrared detectors were used to measure movement in 3 axes. The animals were then injected i.p. with vehicle alone, scopolamine alone (1.7 mg/kg) or both scopolamine and one dose of the test compound. Animals were then replaced in the chambers and locomotor activity was measured for an additional 1 hour period. Total activity measures (vertical+horizintal movements) were collected and statistically analyzed in four 15 minute periods.

[5] = Table 1, rat brain tissue, [^3 H]PZ 0.5 nM, read-out: ^3 H-Pirenzepine M1 IC50

Row | Compound | IC50 [1, 5] [µM] | IC50 ([2]; read-out: ^3 H-QNB M2 IC50) [µM] | M2/M1 [3] | further results
1 | 3-[[[(3-chlorophenyl)amino]carbonyl]oxy]-N,N,N-trimethyl-1-propynaminium chloride [reference compound] |  |  |  | IC50 ([1]; typical results, reference drugs, read-out: IC50, [^3 H]PZ binding (M1)): 1.3 µM; IC50 ([2]; typical results, reference drugs, read-out: IC50, [^3 H]QNB binding (M2)): 42 µM
2 | Cl.Cl.c1ccc2nc(NCCCN3CCOCC3)ccc2c1 [Example 2, N-[3-(4-Morpholinyl)propyl]-2-quinolinamine dihydrochloride] | 2.5 | 116 | 46 | 
3 | Cc1cc(NCCCN2CCN(C)CC2)nc2ccccc12 [Example 3, 4-Methyl-N-[3-(4-methyl-1-piperazinyl)propyl]-2-quinolinamine (E)-2-butenedioate (1:2) hemihydrate] | 0.6 | 28 | 46 | 
4 | Cc1cc(NCCCCN2CCOCC2)nc2ccccc12 [Example 4, 4-Methyl-N-[4-(4-morpholinyl)butyl]-2-quinolinamine (E)-2-butenedioate (1:1.15)] | 0.54 | 22 | 41 | 
5 | Cc1cc(NCCN2CCOCC2)nc2ccccc12 [Example 5, 4-Methyl-N-[2-(4-morpholinyl)ethyl]-2-quinolinamine (E)-2-butenedioate (3:2) quarter hydrate] | 9.7 | 200 | 21 | 
6 | Cc1cc(NCCCCN2CCN(C)CC2)nc2ccccc12 [Example 6, 4-Methyl-N-[4-(4-methyl-1-piperazinyl)butyl]-2-quinolinamine (E)-2-butenedioate (1:2) one and three quarter hydrate] | 0.37 | 5.5 | 15 | 
7 | Cc1cc(NCCCN2CCCC2=O)nc2ccccc12 [Example 7, 4-Methyl-N-[3-(1-pyrrolidin-2-on)propyl]-2-quinolinamine hydrochloride three-quarter hydrate] | 1.3 | 20 | 15 | 
8 | Cc1cc(NCCCN2CCCCC2)nc2ccccc12 [Example 8, 4-Methyl-N-[3-(1-piperidinyl)propyl]-2-quinolinamine (E)-2-butenedioate (1:1) hemihydrate] | 0.42 | 4.6 | 11 | 
9 | CCc1cc(NCCCN2CCOCC2)nc2ccccc12 [Example 9, 4-Ethyl-N-[3-(4-morpholinyl)propyl]-2-quinolinamine dihydrochloride three quarter hydrate] | 2 | 44 | 22 | 
10 | c1ccc2c(C3CCCCC3)cc(NCCCN3CCOCC3)nc2c1 [Example 10, 4-Cyclohexyl-N-[3-(4-morpholinyl)propyl]-2-quinolinamine dihydrochlorideone quarter hydrate] | 2.3 | 13 | 6 | 
11 | CCN(CC)CCCNc1cc(C)c2ccccc2n1 [Example 11, N,N-Diethyl-N'-(4-methyl-2-quinolinyl)-1,3-propanediamine dihydrochloride hemihydrate] | 0.21 | 18 | 86 | 
12 | Cc1cc(NCCN(C)C)nc2ccccc12.O=C(O)/C=C/C(=O)O [Example 12, N,N-Dimethyl-N'-(4-methyl-2-quinolinyl)-1,2-ethanediamine (E)-2-butenedioate (1:1)] | 1.32 | 35 | 27 | 
13 | Cc1cc(NCCCN(C)C)nc2ccccc12.O=C(O)/C=C/C(=O)O.O=C(O)/C=C/C(=O)O [Example 13, N,N-Dimethyl-N'-(4-methyl-2-quinolinyl)-1,3-propanediamine (E)-2-butenedioate (1:2)] | 0.82 | 21 | 26 | 
14 | O=C1CCCN1CC#CCN1CCCC1 [Oxotremorine sesquifumarate, reference compound] |  |  |  | IC50 [1]: 0.11 µM; IC50 [2]: 1.3 µM
15 | O=C1CCCN1CC#CCN1CCCC1 [Oxotremorine] |  |  |  | minimal effective dose ([4]; Rattus norvegicus, ip, read-out: minimum effective dose): 0.3 mg/kg; effect on scopolamine hyperactivity at lower doses ([4]; doses below 0.3 mg/kg): some effect of oxotremorine was seen at lower doses; Total activity ([4]; scopolamine + oxotremorine 0.03 mg/kg, 15 min): 3020; Total activity ([4]; scopolamine + oxotremorine 0.03 mg/kg, 30 min): 4083; Total activity ([4]; scopolamine + oxotremorine 0.03 mg/kg, 45 min): 3332; Total activity ([4]; scopolamine + oxotremorine 0.03 mg/kg, 60 min): 2265; Total activity ([4]; scopolamine + oxotremorine 0.1 mg/kg, 15 min): 5709; Total activity ([4]; scopolamine + oxotremorine 0.1 mg/kg, 30 min): 4305; Total activity ([4]; scopolamine + oxotremorine 0.1 mg/kg, 45 min): 3725; Total activity ([4]; scopolamine + oxotremorine 0.1 mg/kg, 60 min): 2571; Total activity ([4]; scopolamine + oxotremorine 0.3 mg/kg, 15 min): 2523; Total activity ([4]; scopolamine + oxotremorine 0.3 mg/kg, 30 min): 1819; Total activity ([4]; scopolamine + oxotremorine 0.3 mg/kg, 45 min): 2351; Total activity ([4]; scopolamine + oxotremorine 0.3 mg/kg, 60 min): 1573

Source: patent US5770734A, “N-substituted-2-aminoquinolines useful for treating hypofunction of the cholinergic system” (American Home Products Corporation, priority 1992, dated 1998)
